Results taken from the NIST ThermoML archive (doi:10.1021/je900596d).

Details: Vibrating tube method

FC(F)=C(F)C(F)(F)F [hexafluoropropene]
Details	mass density [kg/m3]
303.28 K, 499 kPa, Fluid (supercritical or subcritical phases)	33.24
303.28 K, 504.3 kPa, Fluid (supercritical or subcritical phases)	33.56
303.28 K, 509.6 kPa, Fluid (supercritical or subcritical phases)	33.97
303.28 K, 514.9 kPa, Fluid (supercritical or subcritical phases)	34.46
303.28 K, 525.4 kPa, Fluid (supercritical or subcritical phases)	35.23
303.28 K, 530.6 kPa, Fluid (supercritical or subcritical phases)	35.69
303.28 K, 535.9 kPa, Fluid (supercritical or subcritical phases)	36.01
303.28 K, 541.1 kPa, Fluid (supercritical or subcritical phases)	36.49
303.28 K, 546.3 kPa, Fluid (supercritical or subcritical phases)	36.92
303.28 K, 551.5 kPa, Fluid (supercritical or subcritical phases)	37.29
303.28 K, 556.7 kPa, Fluid (supercritical or subcritical phases)	37.7
303.28 K, 572.3 kPa, Fluid (supercritical or subcritical phases)	38.97
303.28 K, 577.4 kPa, Fluid (supercritical or subcritical phases)	39.31
303.28 K, 582.5 kPa, Fluid (supercritical or subcritical phases)	39.71
303.28 K, 587.5 kPa, Fluid (supercritical or subcritical phases)	40.14
303.28 K, 597.7 kPa, Fluid (supercritical or subcritical phases)	41.02
303.28 K, 605.4 kPa, Fluid (supercritical or subcritical phases)	41.64
303.28 K, 610.5 kPa, Fluid (supercritical or subcritical phases)	42.03
303.28 K, 615.6 kPa, Fluid (supercritical or subcritical phases)	42.45
303.28 K, 625.6 kPa, Fluid (supercritical or subcritical phases)	43.25
303.28 K, 630.6 kPa, Fluid (supercritical or subcritical phases)	43.67
303.28 K, 635.6 kPa, Fluid (supercritical or subcritical phases)	44.16
303.28 K, 640.7 kPa, Fluid (supercritical or subcritical phases)	44.51
303.28 K, 650.7 kPa, Fluid (supercritical or subcritical phases)	45.35
303.28 K, 655.6 kPa, Fluid (supercritical or subcritical phases)	45.82
303.28 K, 660.6 kPa, Fluid (supercritical or subcritical phases)	46.19
303.28 K, 665.5 kPa, Fluid (supercritical or subcritical phases)	46.57
303.28 K, 670.5 kPa, Fluid (supercritical or subcritical phases)	47.07
303.28 K, 675.4 kPa, Fluid (supercritical or subcritical phases)	47.49
303.28 K, 680.3 kPa, Fluid (supercritical or subcritical phases)	47.87
303.28 K, 685.2 kPa, Fluid (supercritical or subcritical phases)	48.24
303.28 K, 690 kPa, Fluid (supercritical or subcritical phases)	48.67
303.28 K, 694.8 kPa, Fluid (supercritical or subcritical phases)	49.19
303.28 K, 709.3 kPa, Fluid (supercritical or subcritical phases)	50.39
303.28 K, 714.1 kPa, Fluid (supercritical or subcritical phases)	50.86
303.28 K, 718.9 kPa, Fluid (supercritical or subcritical phases)	51.33
303.28 K, 723.7 kPa, Fluid (supercritical or subcritical phases)	51.66
303.28 K, 728.6 kPa, Fluid (supercritical or subcritical phases)	52.22
303.28 K, 734.4 kPa, Fluid (supercritical or subcritical phases)	52.63
303.28 K, 746.1 kPa, Fluid (supercritical or subcritical phases)	53.68
303.28 K, 750.9 kPa, Fluid (supercritical or subcritical phases)	54.09
303.28 K, 756.7 kPa, Fluid (supercritical or subcritical phases)	54.65
303.28 K, 768.4 kPa, Fluid (supercritical or subcritical phases)	55.74
303.28 K, 774.1 kPa, Fluid (supercritical or subcritical phases)	56.3
303.28 K, 779.9 kPa, Fluid (supercritical or subcritical phases)	56.84
303.28 K, 785.6 kPa, Fluid (supercritical or subcritical phases)	57.36
303.28 K, 791.2 kPa, Fluid (supercritical or subcritical phases)	57.85
303.28 K, 796.9 kPa, Fluid (supercritical or subcritical phases)	58.41
303.28 K, 802.6 kPa, Fluid (supercritical or subcritical phases)	58.95
303.28 K, 808.2 kPa, Fluid (supercritical or subcritical phases)	59.58
303.28 K, 813.9 kPa, Fluid (supercritical or subcritical phases)	60.04
303.28 K, 823.6 kPa, Fluid (supercritical or subcritical phases)	61.02
303.28 K, 828.8 kPa, Fluid (supercritical or subcritical phases)	61.46
303.28 K, 838 kPa, Fluid (supercritical or subcritical phases)	62.51
303.28 K, 841.4 kPa, Fluid (supercritical or subcritical phases)	62.82
303.28 K, 842 kPa, Fluid (supercritical or subcritical phases)	62.87
303.28 K, 842.4 kPa, Fluid (supercritical or subcritical phases)	62.98
303.28 K, 843.8 kPa, Fluid (supercritical or subcritical phases)	63.1
303.28 K, 844.7 kPa, Fluid (supercritical or subcritical phases)	63.37
303.28 K, 845.6 kPa, Fluid (supercritical or subcritical phases)	63.62
303.28 K, 846.3 kPa, Fluid (supercritical or subcritical phases)	63.97
303.28 K, 846.8 kPa, Fluid (supercritical or subcritical phases)	64.22
303.28 K, 847.7 kPa, Fluid (supercritical or subcritical phases)	64.87
303.28 K, 848.2 kPa, Fluid (supercritical or subcritical phases)	65.17
303.36 K, 851.7 kPa, Liquid	1288.08
303.36 K, 854.5 kPa, Liquid	1288.17
303.36 K, 856.9 kPa, Liquid	1288.04
303.36 K, 858.9 kPa, Liquid	1288.19
303.36 K, 870 kPa, Liquid	1288.22
303.36 K, 873.5 kPa, Liquid	1288.36
303.36 K, 880.9 kPa, Liquid	1288.43
303.36 K, 885.8 kPa, Liquid	1288.43
303.36 K, 887.7 kPa, Liquid	1288.47
303.36 K, 903 kPa, Liquid	1288.59
303.36 K, 908.2 kPa, Liquid	1288.61
303.36 K, 911.2 kPa, Liquid	1288.78
303.36 K, 918.3 kPa, Liquid	1288.76
303.36 K, 927 kPa, Liquid	1288.93
303.36 K, 935.5 kPa, Liquid	1288.99
303.36 K, 940.8 kPa, Liquid	1288.91
303.36 K, 943.4 kPa, Liquid	1289.1
303.36 K, 946.1 kPa, Liquid	1289.23
303.36 K, 954.6 kPa, Liquid	1289.18
303.36 K, 959.8 kPa, Liquid	1289.24
303.36 K, 965.5 kPa, Liquid	1289.39
303.36 K, 974 kPa, Liquid	1289.46
303.36 K, 983.2 kPa, Liquid	1289.54
303.36 K, 988.8 kPa, Liquid	1289.67
303.36 K, 995.6 kPa, Liquid	1289.74
303.36 K, 1001.4 kPa, Liquid	1289.81
303.36 K, 1006.1 kPa, Liquid	1289.98
303.36 K, 1016.7 kPa, Liquid	1289.99
303.36 K, 1021.3 kPa, Liquid	1290
303.36 K, 1025.8 kPa, Liquid	1290.01
303.36 K, 1030.5 kPa, Liquid	1290.08
303.36 K, 1045.7 kPa, Liquid	1290.29
303.36 K, 1063.4 kPa, Liquid	1290.5
303.36 K, 1068.6 kPa, Liquid	1290.58
303.36 K, 1082.5 kPa, Liquid	1290.71
303.36 K, 1095.4 kPa, Liquid	1290.76
303.36 K, 1106.3 kPa, Liquid	1291.06
303.36 K, 1118.1 kPa, Liquid	1291.22
303.36 K, 1152.1 kPa, Liquid	1291.56
303.36 K, 1163 kPa, Liquid	1291.61
303.36 K, 1174.7 kPa, Liquid	1291.89
303.36 K, 1188.2 kPa, Liquid	1292.04
303.36 K, 1203.3 kPa, Liquid	1292.26
303.36 K, 1216 kPa, Liquid	1292.23
303.36 K, 1235 kPa, Liquid	1292.43
303.36 K, 1249 kPa, Liquid	1292.78
303.36 K, 1261.3 kPa, Liquid	1292.76
303.36 K, 1289 kPa, Liquid	1293.23
303.36 K, 1305.6 kPa, Liquid	1293.27
303.36 K, 1340.2 kPa, Liquid	1293.72
303.36 K, 1361.8 kPa, Liquid	1293.94
303.36 K, 1383.4 kPa, Liquid	1294.19
303.36 K, 1404.6 kPa, Liquid	1294.41
303.36 K, 1448.9 kPa, Liquid	1294.92
303.36 K, 1483.7 kPa, Liquid	1295.38
303.36 K, 1495.8 kPa, Liquid	1295.69
303.36 K, 1517.4 kPa, Liquid	1295.82
303.36 K, 1540.3 kPa, Liquid	1296.17
303.36 K, 1561.5 kPa, Liquid	1296.23
303.36 K, 1582.1 kPa, Liquid	1296.56
303.36 K, 1615.7 kPa, Liquid	1296.92
303.36 K, 1637.2 kPa, Liquid	1297.09
303.36 K, 1659.1 kPa, Liquid	1297.43
303.36 K, 1680.6 kPa, Liquid	1297.48
303.36 K, 1726.5 kPa, Liquid	1298.26
303.36 K, 1771 kPa, Liquid	1298.55
303.36 K, 1793.6 kPa, Liquid	1298.76
303.36 K, 1815.1 kPa, Liquid	1299.1
303.36 K, 1837.5 kPa, Liquid	1299.36
303.36 K, 1861.7 kPa, Liquid	1299.58
